Patent publication US20210251220A1, “LICE ELIMINATOR” (priority 2018, published 2021)

Assay: Contact angle of spreading component
Assay type: physicochemical
Details: 10% by weight aqueous solution, droplet on stainless steel plate, θ/2 method (JIS R3257)
Procedure: It is preferred that the contact angle of the spreading component to be mixed in the lice eliminator according to the present invention is 1 to 60°. When the contact angle on a solid surface of the spreading component to be mixed in the lice eliminator according to the present invention is in this range, the lice eliminator spreads wet and is easily taken onto a louse, for example, easily adheres to and spreads out over the outer skin of a louse, without being repelled by the outer skin when brought into contact with the louse, and the effect of exterminating a louse by blocking the louse from the outside, for example, by sealing the spiracle of the louse becomes higher. It is preferred that the contact angle of the spreading component contained in the lice eliminator of the present invention is measured by a θ/2 method or the like in accordance with the method described in JIS R3257 (1999) or the like. When the spreading component is soluble in water and is solid, the contact angle as an aqueous solution, for example, at 10% by weight or the like is measured. When the spreading component is not soluble in water and is in a liquid state, the contact angle is measured as the stock solution, and when the spreading component is soluble in water and is in a liquid state, the contact angle is measured as the stock solution or an aqueous solution at 10% by weight or the like.
A 10% by weight aqueous solution of each spreading component was prepared, and the contact angle when a droplet of the aqueous solution was put on a stainless steel plate was measured with a contact angle meter (CAX-150 manufactured by Kyowa Interface Science Co., Ltd.) by a θ/2 method in accordance with the method described in JIS R3257 (1999).

CCCCCCCCCCCCc1ccc(S(=O)(=O)[O-])cc1.[Na+] [compound 1, Sodium dodecylbenzenesulfonate]
Contact angle (°) of agent: 25 °

CCCCCCCCCCCCOS(=O)(=O)[O-].[Na+] [compound 3, Sodium lauryl sulfate]
Contact angle (°) of agent: 38 °

Polyethylene glycol monolaurate [compound 9]
Contact angle (°) of agent: 34 °

Monolauric acid polyethylene glycol [compound 10]
Contact angle (°) of agent: 39 °

Polyoxyethylene lauryl ether [compound 8]
Contact angle (°) of agent: 38 °

CCCCCCCCCCCC[N+](C)(C)C.[Cl-] [compound 4, Lauryl trimethyl ammonium chloride]
Contact angle (°) of agent: 36 °
